Values joined by “and” are separate entries in the source; they are usually repeats but may differ in a detail not shown here. Equal values may be shown once. Marks after values point to notes of the source that are not given here.

The values below come from article PMC6669558, “Bioactive Compounds Isolated from Marine Bacterium Vibrio neocaledonicus and Their Enzyme Inhibitory Activities” (Marine Drugs, 2019).

Test [1] has as its target T1, xanthine oxidase from bovine milk (Bos taurus, UniProt P80457).
T1 construct: purchased Sigma Aldrich (Shanghai, China); host or cells: bovine milk
The test is described as follows: Xanthine oxidase inhibition assay. It is filed as biochemical. From the text: (§1) Acetylcholinesterase from Electrophorus electricus, alphaglucosidase from Saccharomyces cerevisiae, and xanthine oxidase from bovine milk were obtained from Sigma Aldrich (Shanghai, China). The other reagents used in the bioassays were purchased either from Solarbio or Sigma Aldrich. Analytical reagent grade organic solvents for extraction were purchased from XL Xilong Scientific Chemical. Silica gel plates (Silica gel 60 F254 0.2 mm layer thickness) were purchased from Merck (KGaA, Darmstadt, Germany). A spectrometer (Thermo Scientific Multiskan GO, Vantaa, Finland) was used for all measurements of AChE, AG and XO inhibitory activities. The venom was extracted and collected manually from the adult specimens of B. asper snakes from Colombia (South America) that were held captive in the Serpentarium at University of Antioquia. The venom was centrifuged, and the supernatant was lyophilized and frozen at −70 °C until its use.
The assay was based on the developed method of Valentao [56] and modified for application in microplates by Lopez-Cruz. All test samples were dissolved in a 50 mM phosphate buffer to simulate the environment in which the reaction occurs in the body. […] The control contained all components except the sample. The inhibitory rate was calculated as the formula: %I = [1 − (ODs − OD sample sb)/ODn-ODnb] × 100%; where: ODn is the absorbance value of the sample system in which sample is substituted by PBS, ODnb is the absorbance value of ODn in which no XO was added, ODsb is the absorbance of ODs in which no XO was added.

The target in test [2] is T2, alphaglucosidase from Saccharomyces cerevisiae (Saccharomyces cerevisiae, UniProt P53341).
T2 construct: purchased Sigma Aldrich (Shanghai, China)
T2 sequence (P53341 whole entry): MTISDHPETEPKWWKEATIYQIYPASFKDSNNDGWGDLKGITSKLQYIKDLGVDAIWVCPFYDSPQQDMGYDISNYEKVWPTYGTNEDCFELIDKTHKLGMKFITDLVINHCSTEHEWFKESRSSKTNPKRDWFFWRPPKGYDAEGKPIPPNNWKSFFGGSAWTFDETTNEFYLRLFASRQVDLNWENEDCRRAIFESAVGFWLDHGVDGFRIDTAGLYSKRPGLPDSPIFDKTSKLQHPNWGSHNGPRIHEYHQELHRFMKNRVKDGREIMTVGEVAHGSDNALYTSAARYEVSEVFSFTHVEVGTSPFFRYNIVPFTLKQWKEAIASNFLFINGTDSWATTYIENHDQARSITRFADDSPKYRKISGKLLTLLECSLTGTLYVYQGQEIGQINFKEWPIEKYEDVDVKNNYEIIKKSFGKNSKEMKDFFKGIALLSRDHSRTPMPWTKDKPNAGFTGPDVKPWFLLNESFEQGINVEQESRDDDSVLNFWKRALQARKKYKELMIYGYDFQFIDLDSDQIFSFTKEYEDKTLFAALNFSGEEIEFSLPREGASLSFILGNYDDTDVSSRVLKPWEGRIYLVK
The experiment in a line: Alphaglucosidase inhibition assay (pNPG). It is filed as biochemical. The conditions noted are these: for inhibitory activity for the enzyme AG (in words): at any of the tested doses (3.125-50 µg/mL).
Description: as §1
The AG inhibition activity was evaluated by measuring the release of p-nitrophenol from p nitrophenyl-α-D-glucopyranoside (pNPG) following the protocol proposed by Pistia-Brueggemann, with modifications. […] The control (C-) contained all the reagents but the sample was substituted by PBS. […] The inhibitory rate was calculated as the formula: %I = [1 − (ODs − OD sample sb)/ODn-ODnb] × 100%; where: ODn is the absorbance value of the sample system in which sample is substituted by PBS, ODnb is the absorbance value of ODn in which no AG was added, ODsb is the absorbance of ODs in which no AG was added.

The target in test [3] is T3, Acetylcholinesterase from Electrophorus electricus (Electrophorus electricus, UniProt O42275).
T3 construct: purchased Sigma Aldrich (Shanghai, China)
T3 sequence (O42275 24-633): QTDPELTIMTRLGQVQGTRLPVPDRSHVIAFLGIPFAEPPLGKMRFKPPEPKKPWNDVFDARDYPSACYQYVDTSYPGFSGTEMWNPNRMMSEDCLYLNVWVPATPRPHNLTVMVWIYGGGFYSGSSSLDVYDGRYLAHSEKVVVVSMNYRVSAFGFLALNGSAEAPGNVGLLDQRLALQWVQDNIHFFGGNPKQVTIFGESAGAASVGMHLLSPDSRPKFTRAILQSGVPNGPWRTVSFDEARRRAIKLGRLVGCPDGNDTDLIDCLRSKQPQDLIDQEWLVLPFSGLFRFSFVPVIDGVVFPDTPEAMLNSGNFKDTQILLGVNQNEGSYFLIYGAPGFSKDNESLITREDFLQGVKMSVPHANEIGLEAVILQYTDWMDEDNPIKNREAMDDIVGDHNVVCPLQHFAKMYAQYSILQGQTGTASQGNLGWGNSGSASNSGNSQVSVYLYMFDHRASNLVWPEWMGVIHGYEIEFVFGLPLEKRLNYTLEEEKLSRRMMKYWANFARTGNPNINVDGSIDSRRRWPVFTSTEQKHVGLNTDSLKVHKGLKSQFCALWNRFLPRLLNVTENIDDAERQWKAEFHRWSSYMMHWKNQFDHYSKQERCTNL
The experiment in a line: Acetylcholinesterase inhibition assay (Ellman, ATCI substrate). The test is classed as biochemical.
Description: as §1
AChE inhibition was determined according to the method of Ellman with ATCI as substrate. […] The control contained all components except the tested extract. The inhibitory rate was calculated as the formula: %I = [1 − (ODs−OD sample sb)/ODn-ODnb] × 100%; where: ODn is the absorbance value of the sample system in which sample is substituted by PBS, ODnb is the absorbance value of ODn in which no AChE was added, ODsb is the absorbance of ODs in which no AchE was added.
Background: Ellman's reagent forms a yellow product with free thiols.

Test [4] deals with B. asper venom. The test is described as follows: Inhibition of proteolytic activity of venom on azocasein. Conditions: 3 µg venom per well. It is filed as biochemical, Bothrops asper.
Description: as §1
The proteolytic activity was measured on azocasein (Sigma Aldrich, St. Lous, MO, USA) according to Wang with some modifications. […] The supernatant (100 μL) was mixed with an equal volume of 0.5 M NaOH, and the absorbance was measured at 450 nm. Results are shown as percentage of activity (absorbance at 450 nm). […]

Test [5] concerns Phospholipase A2 (Cdcum6). The test is described as follows: Inhibition of PLA2 activity with 4N3OBA substrate. It is filed as biochemical, Crotalus durissus cumanensis. As to the method: (§2) Batx-I was isolated from Bothrops atrox according to the protocol of Patiño. Purification was done by ion-exchange chromatography (CM Sephadex C25) and the toxin purity was tested by RP-HPLC and SDS PAGE. PLA2 was isolated from Crotalus durissus cumanensis according to the protocol of Pereañez. PLA2 was purified by RP-HPLC on C-18 column eluted at 1.0 mL/min with a gradient from 0% to 100% acetonitrile in 0.1% trifluoroacetic acid (v/v). Absorbance was monitored at 215 nm. Batx-I and Cdcum6 were lyophilized and stored at −20 °C until their use.
The inhibitory effect of indole on the PLA2 of snake venom was assessed by two methods; the first of them, using monodispersed substrate 4N3OBA (manufactured by BIOMOL, Hamburg Germany) according to the method described by Holzer and Mackessy and adapted for a 96-well ELISA plate. […] The inhibitory effect of indole on PLA2 activity was determined through pre-incubation of the enzyme with each concentration of the compound for 30 min at 37 °C. After the incubation period, the sample was added to the assay and the reaction was monitored at 425 nm for 40 min at 37 °C. The quantity of chromophore released (4-nitro-3-hydroxy benzoic acid) was proportional to the enzymatic activity. […]

The subject of test [6] is B. asper venom. The test is described as follows: Inhibition of coagulant activity of venom (plasma clotting time). The test is classed as biochemical, Bothrops asper. As to the method: The method described by Theakston and Reid was followed, with small modifications. Briefly, 1.0 µg of B. asper dissolved in 25 µL PBS were mixed with 75 µL of different concentrations of indole, and pre-incubated for 30 min at 37 °C. After, 100 µL of mixtures were added to 0.2 mL of plasma, and the time required for plasma coagulation was determined.

In test [7] the test system is Metalloproteinase (Batx-I). The experiment in a line: Inhibition of proteolytic activity of isolated metalloproteinase on azocasein. It is filed as biochemical, Bothrops atrox. The conditions noted are these: 3 µg toxin per well. As to the method: as §2
The proteolytic activity was measured on azocasein (Sigma Aldrich, St. Lous, MO, USA) according to Wang with some modifications. Briefly, 3 µg of B. asper venom or Batx-I were dissolved in 5 μL of 25 mM Tris (0.15 M NaCl, 5 mM CaCl2), pH 7.4, and were mixed with different doses of indole in order to obtain 1:20, 1:10 and 1:5 w/w ratios, respectively. Mixes were pre-incubated for 30 min at 37 °C. Later, these solutions were incubated with 10 mg/mL of azocasein diluted in the same buffer. After an incubation of 90 min at 37 °C, the reaction was stopped by the addition of 200 μL of trichloroacetic acid. The samples were then centrifuged at 3000 rpm for 5 min. The supernatant (100 μL) was mixed with an equal volume of 0.5 M NaOH, and the absorbance was measured at 450 nm. Results are shown as percentage of activity (absorbance at 450 nm). […]

Test [8] has as its system B. asper venom. The experiment in a line: Inhibition of indirect hemolytic activity (agarose-erythrocyte-egg yolk gels). It is filed as biochemical, Bothrops asper. Conditions: at tested doses. How it is done:
The second method to evaluate the inhibitory effect of indole on PLA2, was determining the inhibition of the indirect hemolytic activity. This was evaluated in agarose-erythrocyte-egg yolk gels according to Gutierrez. It used a minimum indirect hemolytic dose (MIHD) of B. asper venom of 2.2 μg, defined as the amount of venom that induced a 20 mm diameter hemolytic halo. Venom and different doses of indole were preincubated for 30 min at 37 °C and the inhibitory potential was measured after 20 h of plate incubation at 37 °C. This experiment was done in triplicate.

[9] abbreviates: dose 50 µg/mL, listed as indole.

T1 sequence (P80457 whole entry): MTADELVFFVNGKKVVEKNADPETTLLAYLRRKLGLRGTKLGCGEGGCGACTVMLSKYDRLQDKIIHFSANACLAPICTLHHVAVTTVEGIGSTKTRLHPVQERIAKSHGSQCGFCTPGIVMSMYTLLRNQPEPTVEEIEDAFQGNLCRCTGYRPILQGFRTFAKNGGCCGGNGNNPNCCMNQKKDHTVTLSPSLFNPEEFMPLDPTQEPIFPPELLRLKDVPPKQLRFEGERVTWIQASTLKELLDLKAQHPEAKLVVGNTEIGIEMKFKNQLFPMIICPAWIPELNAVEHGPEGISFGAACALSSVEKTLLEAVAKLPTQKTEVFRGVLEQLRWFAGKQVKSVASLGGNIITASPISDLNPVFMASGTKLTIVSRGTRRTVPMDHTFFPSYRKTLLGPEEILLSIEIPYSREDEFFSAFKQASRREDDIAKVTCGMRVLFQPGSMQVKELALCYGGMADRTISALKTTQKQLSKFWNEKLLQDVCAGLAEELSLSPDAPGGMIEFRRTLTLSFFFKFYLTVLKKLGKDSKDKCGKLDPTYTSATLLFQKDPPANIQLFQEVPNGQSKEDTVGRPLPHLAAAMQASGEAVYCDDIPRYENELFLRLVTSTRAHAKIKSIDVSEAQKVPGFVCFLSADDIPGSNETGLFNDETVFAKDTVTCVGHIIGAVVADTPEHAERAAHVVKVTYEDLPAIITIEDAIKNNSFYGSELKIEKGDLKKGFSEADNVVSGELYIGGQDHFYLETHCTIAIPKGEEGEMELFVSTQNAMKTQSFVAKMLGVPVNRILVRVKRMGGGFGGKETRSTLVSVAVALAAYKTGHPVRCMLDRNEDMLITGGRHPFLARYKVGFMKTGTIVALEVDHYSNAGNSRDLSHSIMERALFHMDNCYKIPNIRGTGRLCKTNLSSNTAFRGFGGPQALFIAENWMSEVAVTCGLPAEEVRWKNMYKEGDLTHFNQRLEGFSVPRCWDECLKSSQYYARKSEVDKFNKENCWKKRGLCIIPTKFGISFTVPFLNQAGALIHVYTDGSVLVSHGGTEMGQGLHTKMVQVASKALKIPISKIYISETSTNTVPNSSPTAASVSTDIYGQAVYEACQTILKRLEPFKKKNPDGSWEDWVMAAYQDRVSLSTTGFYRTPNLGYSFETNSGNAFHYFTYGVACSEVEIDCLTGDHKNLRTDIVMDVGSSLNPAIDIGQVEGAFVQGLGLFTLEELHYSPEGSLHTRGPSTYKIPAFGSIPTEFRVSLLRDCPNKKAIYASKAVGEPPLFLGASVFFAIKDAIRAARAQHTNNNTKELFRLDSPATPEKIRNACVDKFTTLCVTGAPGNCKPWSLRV

Take `O=Cc1c[nH]c2ccccc12` [1H-indole-3-carboxaldehyde]: half-maximal inhibition in test [1] (IC50) was put at 13.4 ± 0.39 µM. The XOI% in test [1] (dose 3.125 µg/mL) was 61.14% and 61.14 ± 0.14 %; in test [1] (dose 6.25 µg/mL), 67.69% and 67.69 ± 0.34 %; in test [1] (dose 25 µg/mL), 86.49% and 86.49 ± 0.89 %; in test [1] (dose 50 µg/mL) it was 100% and 100 *** %. Also, in test [2], the “inhibitory activity for the enzyme AG (in words)” value is reported as “no inhibitory activity”. Besides, the AGI% in test [2] (dose 3.125 µg/mL), in test [2] (dose 6.25 µg/mL), in test [2] (dose 25 µg/mL) and in test [2] (dose 50 µg/mL) was 0% each time. Also, the AChEI% in test [3] (dose 3.125 µg/mL), in test [3] (dose 6.25 µg/mL), in test [3] (dose 25 µg/mL) and in test [3] (dose 50 µg/mL) was 0% in each case.

Consider `O=Cc1ccc(O)cc1` [4-hydroxybenzaldehyde], for which the IC50 (in general, the point on the concentration scale where inhibition reaches its midpoint) in test [1] is 506 ± 16 µM; in test [3], 6890 ± 118 µM. Also, the XOI% in test [1] (dose 3.125 µg/mL) is 17.39 ± 0.49%; in test [1] (dose 6.25 µg/mL) it was 25.27 ± 0.19%; in test [1] (dose 25 µg/mL), 31.67 ± 0.52%; in test [1] (dose 50 µg/mL) it was 50.75% and 50.75 ± 0.50%. Further, the “inhibitory activity for the enzyme AG (in words)” value in test [2] is reported as “no inhibitory activity”. The AGI% in test [2] (dose 3.125 µg/mL), in test [2] (dose 6.25 µg/mL), in test [2] (dose 25 µg/mL) and in test [2] (dose 50 µg/mL) was 0% throughout. Moreover, the AChEI% is 0% in test [3] (dose 3.125 µg/mL); 4.21 ± 0.01% in test [3] (dose 6.25 µg/mL); 14.26 ± 0.011% in test [3] (dose 25 µg/mL); 25.7% and 25.7 ± 0.56% in test [3] (dose 50 µg/mL).

As to `c1ccc2[nH]ccc2c1` [Indole, indole], in the test with B. asper venom [4] (venom:compound ratio 1:10), the “proteolytic activity inhibition of B. asper venom (in words)” value is given as “weak inhibition without significance”. For the same compound, the “proteolytic activity inhibition of B. asper venom” value in the test on B. asper venom [4] (venom:compound ratio 1:20 w/w) was 77.9% ± 5.5. Besides, the IC50 in test [1] is 843 ± 16.7 µM; in test [2] (read-out: AG (IC50 µM)), 18.7 ± 1.1 µM; in test [3], 335 ± 13.1 µM. The XOI% amounted to 15.01 ± 0.31% in test [1] (dose 3.125 µg/mL); 17.77 ± 0.52% in test [1] (dose 6.25 µg/mL); 25.17 ± 0.65% in test [1] (dose 25 µg/mL); 44.30 ± 1.14% in test [1] (dose 50 µg/mL); 44.3% in test [1] (setting [9]). The figures for the “inhibition of PLA2 activity (given as proteolytic activity inhibition)” value in test [5] (toxin:compound ratio 1:10) and in test [5] (toxin:compound ratio 1:20) were 10.0% and 15.20%, respectively. Besides, the AGI% was 51.43 ± 1.06 % in test [2] (dose 3.125 µg/mL); 51.43% in test [2] (dose 3.125 µg/mL, listed as indole); 81.49 ± 1.17 % in test [2] (dose 6.25 µg/mL); 81.49% in test [2] (dose 6.25 µg/mL, listed as indole); 94.4 ± 1.01 % in test [2] (dose 25 µg/mL); 94.4% in test [2] (dose 25 µg/mL, listed as indole). For the same compound, the AGI% in test [2] (dose 50 µg/mL) is given as 100 *** %. In addition, the AChEI% in test [3] (dose 3.125 µg/mL) is given as 0%; in test [3] (dose 6.25 µg/mL) it was 9.42 ± 0.07%; in test [3] (dose 25 µg/mL), 37.54 ± 1.26%; in test [3] (dose 50 µg/mL), 51.3 ± 1.67 %; in test [3] (setting [9]) it was 51.3%. The “coagulant activity of the compound by itself (in words)” value in the test with B. asper venom [6] (compound alone, after half an hour of incubation) was “did not generate coagulant activity”. The “inhibition of the coagulating effect in vitro (in words)” value in the test on B. asper venom [6] (induced by 1.0 µg of venom) was “significant in vitro inhibition”. The “maximum delay time for clotting onset (clotting time)” value with B. asper venom [6] (venom:compound ratio 1:20 w/w, 1.0 µg venom, venom alone 21.6 ± 0.8 s) came to 99 ± 4.0 s. For the same compound, the “inhibition of proteolytic activity of metalloprotease” value in test [7] (toxin:compound ratio 1:5, not significant) was 4.31 ± 1.9; in test [7] (toxin:compound ratio 1:10), 13.54 ± 2.5. For the same compound, in the test on B. asper venom [8], the “inhibition of the indirect hemolytic activity of the complete venom (in words)” value was “did not show inhibition”.
